Publication PMC11590026, “Synthesis, enzyme inhibition, and docking studies of new schiff bases of disalicylic acid methylene-based derivatives as dual-target antibacterial agents” (Frontiers in Chemistry, 2024)
Converted amounts (≈) assume the structure as drawn. Like-named read-outs stand apart in the source and are kept apart here.

Key:
B. subtilis = experiment: MIC/MBC assay, twofold serial dilution; assay type: cell-based, Bacillus subtilis; details: Bacillus subtilis; for MBC: read-out: MBC; for MIC: read-out: MIC
Experimental: (§1) The results of this in vitro assay test are consistent with the findings of the antimicrobial sensitivity test. […] It has lower antimicrobial activity than ciprofloxacin against all pathogens tested.
(§2) The MBC differs from the MIC. […]
(§3) 4.2.2. Minimum inhibitory concentration assay
(§4) In 96-well microtiter plates and […] of fresh bacterial culture of a single McFarland unit overnight, a double serial dilution of each compound […] in sterile standard saline were prepared to every single source well. Ciprofloxacin antibiotic (5 mg / mL - 1) and normal saline were included as standard reference in each assay. The plates were incubated at 37 0C overnight. As an indicator of bacterial growth, […] of p-iodonitrotetrazolium violet (INT) was added to each well and incubated at 37 0C for 30 […]
(§5) min. MIC values are recorded as the lowest concentration of the extract that completely inhibited bacterial growth that is clear well. The colorless tetrazolidium salt acts as an electron accepter and is reduced to a red colored formazan product by biological activity organisms. Where bacterial growth was inhibited, the solution in the well remained clear after incubation with INT. […]

S. aureus = experiment: MIC/MBC assay, twofold serial dilution; assay type: cell-based, Staphylococcus aureus; details: for MBC: read-out: MBC
Experimental: as §1, §2, §3, §4, §5

E. coli = experiment: MIC/MBC assay, twofold serial dilution; assay type: cell-based, Escherichia coli; details: Escherichia coli; for MBC: read-out: MBC; for MIC: read-out: MIC
Experimental: as §1, §2, §3, §4, §5

P. aeruginosa = experiment: MIC/MBC assay, twofold serial dilution; assay type: cell-based, Pseudomonas aeruginosa; details: Pseudomonas aeruginosa; for MBC: read-out: MBC; for MIC: read-out: MIC
Experimental: as §1, §2, §3, §4, §5

[1] = test system: S. aureus (ATCC 43300) (MRSA); experiment: Antibacterial assay against multi-drug resistant strains (MIC/MBC); assay type: cell-based, Staphylococcus aureus; details: Staphylococcus aureus, S. aureus ATCC 43300 (MRSA); for MBC: read-out: MBC; for MIC: read-out: MIC
E. coli (ATCC BAA-196) = experiment: as above; assay type: cell-based, Escherichia coli; details: Escherichia coli; for MBC: ATCCBAA196; for MIC: ATCCBAA196, read-out: MIC
[2] = test system: P. aeruginosa (ATCC BAA-2111); experiment: as above; assay type: cell-based, Pseudomonas aeruginosa; details: Pseudomonas aeruginosa; for MBC: ATCCBAA2111; for MIC: ATCCBAA2111, read-out: MIC
[3] = Cell viability assay (MTT); assay type: cell-based; details: human, MCF-10A cells (normal mammary gland epithelial cell line), 4-day incubation
Experimental: The vitality of the investigated compounds was assessed using the MCF-10A cell line, which is a normal human mammary gland epithelial cell line. Following a 4-day incubation period on MCF-10A cells with a concentration of 50 µM for each compound being studied, the viability of the cells was assessed using the MTT test ([Hisham et al., 2022]; [Mahmoud et al., 2022]).
4.2.3. Cell Viability assay
MTT assay was carried out to study the effect of compounds on mammary epithelial cells (MCF-10A). The medium in which cells were propagated contained Dulbecco's modified Eagle's medium (DMEM)/ Ham's F-12 medium (1:1) supplemented with epidermal growth factor (20 ng/mL), hydrocortisone (500 ng/mL), insulin (10 μg/mL), 2 mM glutamine and 10% fetal calf serum. After every 2-3 days, the cells were passaged using trypsin ethylenediamine tetra acetic acid (EDTA). The cells were seeded at a density of 10^4 cells mL-1 in flat-bottomed culture plates containing 96 wells each. After 24 h, medium was removed from the plates and the compounds in (in 0.1% DMSO) were added (in 200 μL medium to yield a final concentration of 0.1% v/v) to the wells of plates. A single compound was designated with four wells followed by incubation of plates for 96h at 37°C. After incubation, medium was removed completely from the plates followed by addition of MTT (0.4 mg/mL in medium) to each well and subsequent incubation of plates for 3h. MTT (along with the medium) was removed and DMSO (150μL) was added to each well of the culture plates, followed by vortexing and subsequent measurement of absorbance (at 540 nm) using microplate reader. The data are shown as percentage inhibition of proliferation in comparison with controls

Gram-positive bacteria = experiment: MBC assay, Gram-positive bacteria together; assay type: cell-based; details: Gram-positive bacteria (B. subtilis, S. aureus)
Text: The MBC differs from the MIC.

A. flavus = experiment: Antifungal assay (MIC/MFC), twofold serial dilution; details: for MIC: A. flavus
C. albicans = experiment: as above; details: Candida albicans
[4] = Staphylococcus aureus, read-out: MIC

SMILES	MBC (B. subtilis)	MIC (B. subtilis)	MBC (S. aureus; Staphylococcus aureus)	MIC (S. aureus; [4])	MBC (E. coli)	MIC (E. coli)	MBC (P. aeruginosa)	MIC (P. aeruginosa)	MBC [1]	MIC [1]	MBC (E. coli (ATCC BAA-196))	MIC (E. coli (ATCC BAA-196))	MBC [2]	MIC [2]	viability at 96 h, 50 µM [3]	MBC (Gram-positive bacteria)	MIC (A. flavus)	MFC (A. flavus; Aspergillus flavus)	MIC (A. flavus; Aspergillus flavus)	MFC (C. albicans)	other results
O=C1Nc2ccc(Br)cc2/C1=N/NC(=O)c1cc(Cc2cc(Cl)c(O)c(C(=O)N/N=C3\C(=O)Nc4ccc(Br)cc43)c2)cc(Cl)c1O [Compound 6c]	0.051 ± 0.003 µM (≈ 0.0409 µg/mL)	0.033 ± 0.002 µM (≈ 0.0264 µg/mL)	0.045 ± 0.002 µM (≈ 0.0361 µg/mL)	0.029 µM (≈ 0.0232 µg/mL)	0.088 ± 0.006 µM (≈ 0.0705 µg/mL)	0.066 ± 0.004 µM (≈ 0.0529 µg/mL)	0.085 ± 0.006 µM (≈ 0.0681 µg/mL)	0.065 ± 0.005 µM (≈ 0.0521 µg/mL)	7.1 ± 0.5 µM (≈ 5.69 µg/mL)	4.7 ± 0.2 µM (≈ 3.77 µg/mL)	8.2 ± 0.6 µM (≈ 6.57 µg/mL)	5.3 ± 0.2 µM (≈ 4.25 µg/mL)	9.2 ± 0.6 µM (≈ 7.37 µg/mL)	6.85 ± 0.5 µM (≈ 5.49 µg/mL)	91%	0.028 to 0.058 µM (≈ 0.0224 to 0.0465 µg/mL)	18.20 ± 1 µM (≈ 14.6 µg/mL)	35.9 ± 2 µM (≈ 28.8 µg/mL)	14.5 to 19.5 µM (≈ 11.6 to 15.6 µg/mL)	44.8 ± 3 µM (≈ 35.9 µg/mL)	MIC (S. aureus): 0.029 ± 0.002 µM (≈ 0.0232 µg/mL); MIC (C. albicans): 21.3 ± 1 µM (≈ 17.1 µg/mL)
COc1ccc2c(c1)/C(=N/NC(=O)c1cc(Cc3cc(Cl)c(O)c(C(=O)N/N=C4\C(=O)Nc5ccc(OC)cc54)c3)cc(Cl)c1O)C(=O)N2 [Compound 6e]	0.058 ± 0.003 µM (≈ 0.0408 µg/mL)	0.037 ± 0.002 µM (≈ 0.026 µg/mL)	0.054 ± 0.003 µM (≈ 0.038 µg/mL)	0.035 ± 0.002 µM (≈ 0.0246 µg/mL)	0.095 ± 0.006 µM (≈ 0.0668 µg/mL)	0.069 ± 0.004 µM (≈ 0.0485 µg/mL)	0.097 ± 0.006 µM (≈ 0.0682 µg/mL)	0.069 ± 0.005 µM (≈ 0.0485 µg/mL)	7.8 ± 0.5 µM (≈ 5.49 µg/mL)	5.9 ± 0.2 µM (≈ 4.15 µg/mL)	9.3 ± 0.6 µM (≈ 6.54 µg/mL)	6.25 ± 0.25 µM (≈ 4.4 µg/mL)	10.4 ± 0.7 µM (≈ 7.32 µg/mL)	7.15 ± 0.5 µM (≈ 5.03 µg/mL)	92%	0.028 to 0.058 µM (≈ 0.0197 to 0.0408 µg/mL)	19.50 ± 1 µM (≈ 13.7 µg/mL)	40.2 ± 3 µM (≈ 28.3 µg/mL)	14.5 to 19.5 µM (≈ 10.2 to 13.7 µg/mL)	50.2 ± 3 µM (≈ 35.3 µg/mL)	MIC (C. albicans): 22.9 ± 1 µM (≈ 16.1 µg/mL)
